Data published in patent US20230218654A1, “COMPOSITIONS AND METHODS FOR TREATING HYPERGLYCEMIA IN TYPE-2 DIABETES” (The Board of Regents of the university of Oklahoma, priority 2020, published 2023).
“Also recorded” adds a separate entry of the source.

Legend:
[1] = test system: male C57BL/6J mice fed C or WD; assay: Prevention experiment: MLN4924 twice/week during 16 weeks of WD feeding; format: in vivo
Procedure: Mice fed WD became obese and insulin resistant. For both cohorts, body weight was measured weekly. Male C57BL/6J mice were fed C or WD for 16 weeks. Vehicle or MLN4924 (60 mg/kg) was administered via SQ injection twice/week for 16 weeks. Results are mean ±SEM. n=5-7. “*”, vs C+Veh; “#”, vs. WD+Veh, p<0.05.
Male C57BL/6J mice were purchased from the Jackson Laboratory (Bar Harbor, ME). Mice were fed a regular chow (C) diet or a Western diet (WD) that contains 42% fat calories and 0.2% cholesterol content (TD. 88137, Envigo Inc. Indianapolis, IN).
MLN4924 and TAS4464 were purchased from MedChemExpress (MCE, Monmouth Junction, NJ). For cell treatment, MLN4924 and TAS4464 were dissolved in DMSO. Cells were serum starved overnight and then treated with MLN4924, TAS4464 and/or insulin as indicated. For injection in mice, MLN4924 and TAS4464 were first dissolved in DMSO, which was further suspended in 10% (2-hydroxypropyl)-β-cyclodextrin (Sigma, St. Louis, MO). The final solution contains 1% DMSO. The subcutaneous injection volume is 200 µl/mouse.
Lipids were extracted in a mixture of chloroform: methanol (2:1; v: v), dried under nitrogen, and resuspended in isopropanol containing 1% triton X-100. Total cholesterol, free cholesterol and TG were measured with assay kits following the manufacturer’s instruction. Total cholesterol assay kit and TG assay kit were purchased from Pointe Scientific (Canton, MI).
Aspartate aminotransferase (AST) and alanine aminotransferase (ALT) assay kits were purchased from Pointe Scientific (Canton, MI). Free fatty acid assay kit was purchased from Biovision Inc. (Milpitas, CA). Insulin ELISA kit was purchased from Crystal Chem Inc. (Elk Grove Village, IL).
Next investigated was the glucose lowering effect of CRL inhibition in mice rendered obese and insulin resistant by 16-weeks of WD feeding. […] Next conducted was an intervention study in which MLN4924 treatment was initiated after mice were fed WD for 8 weeks that rendered mice obese and insulin resistant. […] In summary, robust evidence is provided herein that pharmacological CRL inhibition is an effective approach to lowering hyperglycemia.

[2] = test system: primary human hepatocytes; assay: Western blot of insulin signaling in primary human hepatocytes; format: cell-based
Procedure: Cells were pre-treated with increasing dose of MLN4924 for 1 h followed by 100 nM insulin stimulation for 4 h. Western blot was then performed to evaluate insulin signaling activation reflected by AKT phosphorylation.
Cells were treated with MLN4924 for 8 h. IRS1 band densitometry is shown as mean ± SEM of 8-9 independent batches. “* ”, vs. Vehicle, p less than 0.05.
Cells were treated with MLN4924 for 8 h. IRS2 band densitometry is shown as mean ± SEM of 8-9 independent batches. “* ”, vs. Vehicle, p less than 0.05.
FIG. 18B is a Western blot analysis showing that MLN4924 enhances hepatocyte insulin responsiveness (signaling) by delaying feedback IRS degradation. Primary human hepatocytes cells were serum starved for 16 h. Cells were then pre-treated with MLN4924 for 1 h followed by insulin stimulation for 4 h.
IRS protein in IRS 1 and IRS2 band intensity was normalized to Actin band intensity. n=8-9. “*”, p<0.05 (unpaired t-test), vs. Vehicle.
AML12 cells were a generous gift from Dr. Yanqiao Zhang (Northeast Ohio Medical University). AML12 cells were cultured in DMEM medium supplemented with a mixture of insulin-transferrin-selenium (#41400-045, ThermoFisher, Waltham, MA). For experiments, cells were cultured in serum free medium overnight before various treatments were initiated. The siGENOME SMARTpool siRNA and siControl were purchased from Dharmacon, Inc. (Lafayette, CO). […]

[3] = test system: male mice fed WD for 6 weeks; assay: Insulin tolerance test (ITT); format: in vivo; conditions: WD 6 weeks, 60 mg/kg SQ twice
Procedure: Male C7BL/6J mice were first fed WD for 6 weeks, and then treated with 60 mg/kg MLN6924 via subcutaneous (SQ) injection at 5 pm on day 1 and 9 am on day 2. Mice were fasted from 9 am to 3 pm on day 2 and insulin tolerance test was performed with 0.5 U/kg insulin i.p. injection (n=5). All results are expressed as mean ± SEM. “*”, p<0.05, vs. Vehicle group at the same time point. Unpaired Student’s t-test was used to calculate the p value.
Mice were treated with 2 doses of MLN4924 as described. After the second injection at 9 am, mice were fasted for 6 h from 9 am to 3 pm. Mice were injected intraperitoneally […] for PTT, and 0.5 U/kg insulin for ITT. Blood glucose was measured with a OneTouch Ultra glucose meter.

[4] = test system: INS-1 832/13 rat pancreas β cells; assay: Insulin secretion assay in INS-1 832/13 cells; format: cell-based
Procedure: Insulin secreted into the medium was measured, (c) Total remaining intracellular insulin was measured, (d) The % secreted insulin was the fraction of total medium insulin over the sum of insulin in the medium and cells. Results are from 3 independent experiments and expressed as mean ± SEM. Two-way ANOVA and Tukey post hoc test were used to calculate the p values.
INS-1 832/13 rat insulinoma cell line was purchased from Sigma-Aldrich (St. Louis, MO). Cells were cultured in 24-well plate in RPMI-1640 growth medium until 100% confluent. Cells were then treated with vehicle (DMSO) or 500 nM MLN4924 for 5 hrs. Cells were then incubated with 0.5 ml secretion assay buffer (SAB, 114 mM NaCl, 4.7 mM KCl, 1.2 mM KH2PO4, 1.16 mM MgSO4, 20 mM HEPES pH 7.2, 25.5 mM NaHCO3, 2.5 mM CaCl2, and 0.2% BSA) containing 2.5 mM glucose and either vehicle or 500 nM MLN4924 for 1 hr. This step was repeated once. Next, SAB containing 12 mM glucose (0.5 ml) was added to cells to stimulate insulin secretion for 1 hr. The SAB was then collected and cells were lysed in 0.2 ml 1X RIPA buffer. Insulin concentration in SAB and cell lysates was measured with an ELISA assay kit.

[5] = WD 16 weeks, 60 mg/kg SQ twice/week

Structure (SMILES): NS(=O)(=O)OC[C@@H]1C[C@@H](n2ccc3c(N[C@H]4CCc5ccccc54)ncnc32)C[C@@H]1O [MLN4924, ((1S,2S,4R)-4-(4-((1S)-2,3-dihydro-1H-inden-1-ylamino)-7H-pyrrolo[2,3-d]pyrimidin-7-yl)-2-hydroxycyclopentyl) methyl sulfamate]
- tolerability / hepatotoxicity ([1]; 16 weeks of MLN4924, 60 mg/kg SQ twice/week): well tolerated and did not cause hepatotoxicity
- transaminase (ALT) elevation ([1]; C-fed mice, after 16 weeks of MLN4924): did not cause transaminase (ALT) elevation
- blood glucose (6 h fast) [1, 5]: completely normalized blood glucose
- reduction of hepatic cholesterol [1, 5]: ~ 30%
- reduction of hepatic triglycerides (TG) [1, 5]: ~ 40%
- serum ALT ([1]; WD-fed mice, 16 weeks of MLN4924): significantly reduced
- IRS1 and IRS2 protein abundance ([2]; MLN4924 (500 nM) 8 h, independent batches): consistently increased IRS1 and IRS2 protein abundance; also recorded: increased IRS protein abundance
- insulin activation of AKT ([2]; MLN4924 pre-treatment 1 h, 100 nM insulin 4 h): enhanced insulin activation of AKT; also recorded: increased IRS protein abundance and insulin-stimulated AKT activation
- plasma glucose in response to insulin after 1 h ([3]; 0.5 U/kg insulin i.p., similar in vehicle group): ~ 25 mg/dL
- basal glucose ([3]; 6 h fast): lower basal glucose
- neddylation inhibition ([4]; 500 nM MLN4924, 7 hrs): strong neddylation inhibition
- basal insulin secretion ([4]; 500 nM MLN4924, 2.5 mM glucose): did not affect
- glucose-stimulated insulin secretion ([4]; 500 nM MLN4924, 12 mM glucose): did not affect
